Laboratory results as given in ChEMBL document CHEMBL4043107, “Stable C-N axial chirality in 1-aryluracil scaffold and differences in in vitro metabolic clearance between atropisomers of PDE4 inhibitor” (Bioorg Med Chem, 2017).
Values joined by “and” are separate entries in the source; they are usually repeats but may differ in a detail not shown here. Equal values may be shown once.

Molecular target: 3',5'-cyclic-AMP phosphodiesterase 4A (Homo sapiens, UniProt P27815)
Test: Inhibition of human full length recombinant PDE4A1A using FAM-cAMP as substrate after 30 mins by fluorescence based spectrophotometric method

Sequence of 3',5'-cyclic-AMP phosphodiesterase 4A (P27815 whole entry): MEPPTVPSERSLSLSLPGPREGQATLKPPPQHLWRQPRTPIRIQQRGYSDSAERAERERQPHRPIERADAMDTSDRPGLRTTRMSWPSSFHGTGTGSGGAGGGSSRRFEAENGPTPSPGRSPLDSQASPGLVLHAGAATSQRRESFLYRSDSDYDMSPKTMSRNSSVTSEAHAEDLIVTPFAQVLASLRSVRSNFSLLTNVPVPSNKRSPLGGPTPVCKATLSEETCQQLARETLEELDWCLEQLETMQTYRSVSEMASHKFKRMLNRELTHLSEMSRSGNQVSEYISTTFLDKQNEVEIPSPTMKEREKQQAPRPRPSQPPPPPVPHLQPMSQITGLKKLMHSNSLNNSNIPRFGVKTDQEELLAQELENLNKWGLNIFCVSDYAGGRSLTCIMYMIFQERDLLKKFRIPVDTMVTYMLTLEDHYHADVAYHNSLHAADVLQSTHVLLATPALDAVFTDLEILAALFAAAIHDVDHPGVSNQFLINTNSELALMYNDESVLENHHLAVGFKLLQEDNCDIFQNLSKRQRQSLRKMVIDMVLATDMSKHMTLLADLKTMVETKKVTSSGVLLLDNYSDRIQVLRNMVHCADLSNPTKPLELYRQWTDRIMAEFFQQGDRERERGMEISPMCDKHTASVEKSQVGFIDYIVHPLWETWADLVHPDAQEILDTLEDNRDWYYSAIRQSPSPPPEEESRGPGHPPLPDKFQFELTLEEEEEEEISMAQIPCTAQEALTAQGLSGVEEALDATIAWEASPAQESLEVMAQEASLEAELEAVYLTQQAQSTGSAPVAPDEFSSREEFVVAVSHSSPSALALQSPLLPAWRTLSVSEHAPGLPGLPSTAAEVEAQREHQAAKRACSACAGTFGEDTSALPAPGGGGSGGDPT

With `CCCn1c(=O)c2ccc(N)nc2n(-c2cc(OC)ccc2OC)c1=O` the IC50 was 70 µM and 125 µM.
